# Reference: patent publication US11046686B2, “Thiadiazole IRAK4 compounds” (Gilead Sciences, Inc., priority 2018, dated 2021)
# System: TNFα
# Assay: IRAK4 Monocyte TNFα Cell Based Assay
# Design: species or system human
# Settings: Homo sapiens, Monocyte, human monocytes; second part of Table 2, compounds 33-343; unit inferred; read-out: EC50 MONO TNF HTRF
# Procedure: IRAK4 Monocyte TNFα Cell Based Assay Procedure:
# The cell suspension was then plated at a density of 5,000 cells/well onto black 384 well Greiner clear bottom plates. Plates were pre-spotted with test compounds and serially diluted in DMSO where 40 nL/well were delivered using the Echo 550 acoustic liquid dispenser (Labcyte®) for a final DMSO concentration of 0.1%. Plated cells were treated with compound for 1 hour at 37° C. Cells were then stimulated with 50 pg/ml of LPS (Sigma) excluding outside columns of plate used for unstimulated cell control wells. Cells were incubated for an additional 4 hours at 37° C. Cells were then spun out of the media and 5 μl of sample were taken and analyzed for total TNFα content using the TR-FRET Human TNFα detection system (CisBio). This system utilizes two labeled antibodies (cryptate and XL665) that bind to two different epitopes of the TNFα molecule and produce FRET signal proportional to the concentration of TNFα in the sample. Detection antibodies are mixed 50:50 and 5 μL were dispensed into each well. Plates were covered with clear seals and incubated at room temp overnight. […] Percent of control was calculated as follows: % Control=100×(Ratiosample−Ratio0% stimulation)/(Ratio100% Stimulation−Ratio0% Stimulation) where unstimulated cells (0% stimulation) were the negative control and stimulated cells (100% stimulation) were used as the positive control.
row,EC50,Compound
1,13.9 nM,"CC1(O)CCC(c2nnc(-c3cnc(-c4ccc5cc(C#N)cnn45)cc3NC3COC3)s2)CC1 (single isomer, unassigned) [Example 206, 7-(5-(5-(4-hydroxy-4-methylcyclohexyl)-1,3,4-thiadiazol-2-yl)-4-(oxetan-3-ylamino)pyridin-2-yl)pyrrolo[1,2-b]pyridazine-3-carbonitrile]"
2,6.9 nM,"CC(=O)NC1CCN(c2nnc(-c3cnc(-c4ccc5cc(C#N)cnn45)cc3NC(C)C)s2)C[C@@H]1O (stereo in doubt) [Example 64, N-((3S,4R)-1-(5-(6-(3-cyanopyrrolo[1,2-b]pyridazin-7-yl)-4-(isopropylamino)pyridin-3-yl)-1,3,4-thiadiazol-2-yl)-3-hydroxypiperidin-4-yl)acetamide]"

# Same assay, conditions: human monocytes, LPS stimulated; compounds 1-32; read-out: EC50 TNF
row,EC50,Compound
1,211 nM,CC(C)Nc1cc(-c2ccc3cc(C#N)cnn23)ncc1-c1nnc(C2CCOCC2)s1 [Example 32]

# Same assay, conditions: human monocytes; second part of Table 2, compounds 33-343; unit inferred; read-out: EC50 MONO TNF HTRF
row,Compound,EC50
1,CC(=O)N[C@@H]1[C@@H]2CC[C@H]1CN(c1nnc(-c3cnc(-c4ccc5cc(C#N)cnn45)cc3NC(C)C)s1)C2 [Example 38],3.5 nM
2,"CC(C)Nc1cc(-c2ccc3cc(C#N)cnn23)ncc1-c1nnc(C(=O)N[C@H]2CC[C@H](O)CC2)s1 [Example 220, 5-(6-(3-cyanopyrrolo[1,2-b]pyridazin-7-yl)-4-(isopropylamino)pyridin-3-yl)-N-((1r,4r)-4-hydroxycyclohexyl)-1,3,4-thiadiazole-2-carboxamide]",131 nM
3,"CC1(Nc2cc(-c3ccc4cc(C#N)cnn34)ncc2-c2nnc(N3C[C@H]4CC[C@@H](C3)[C@H]4O)s2)COC1 [Example 149, 7-(5-(5-((1R,5S,8r)-8-hydroxy-3-azabicyclo[3.2.1]octan-3-yl)-1,3,4-thiadiazol-2-yl)-4-((3-methyloxetan-3-yl)amino)pyridin-2-yl)pyrrolo[1,2-b]pyridazine-3-carbonitrile]",4.9 nM
4,"CC(C)Nc1cc(-c2ccc3cc(C#N)cnn23)ncc1-c1nnc(N2C[C@H]3CC[C@@H](C2)[C@@H]3NC(=O)C(C)(C)O)s1 [Example 85, N-((1R,5S,8s)-3-(5-(6-(3-cyanopyrrolo[1,2-b]pyridazin-7-yl)-4-(isopropylamino)pyridin-3-yl)-1,3,4-thiadiazol-2-yl)-3-azabicyclo[3.2.1]octan-8-yl)-2-hydroxy-2-methylpropanamide]",3.3 nM
5,CC(=O)N1C2CCC1CN(c1nnc(-c3cnc(-c4ccc5cc(C#N)cnn45)cc3NC3(C)COC3)s1)C2 [Compound 264],2.7 nM
6,"CC(C)Nc1cc(-c2ccc3cc(C#N)cnn23)ncc1-c1nnc(C(=O)N[C@H]2C[C@H](O)C2)s1 [Example 213, 5-(6-(3-cyanopyrrolo[1,2-b]pyridazin-7-yl)-4-(isopropylamino)pyridin-3-yl)-N-((1r,3r)-3-hydroxycyclobutyl)-1,3,4-thiadiazole-2-carboxamide]",1830 nM
7,"CC(=O)N1CCC2(CC1)CN(c1nnc(-c3cnc(-c4ccc5cc(C#N)cnn45)cc3NC3COC3)s1)C2 [Example 75, 7-(5-(5-(7-acetyl-2,7-diazaspiro[3.5]nonan-2-yl)-1,3,4-hiadiazol-2-yl)-4-(oxetan-3-ylamino)pyridin-2-yl)pyrrolo[1,2-b]pyridazine-3-carbonitrile]",3.2 nM
8,"CC(=O)N[C@H]1C[C@H](c2nnc(-c3cnc(-c4ccc5cc(C#N)cnn45)cc3NC(C)C)s2)C1 [Compound 278, N-((1r,3r)-3-(5-(6-(3-cyanopyrrolo[1,2-b]pyridazin-7-yl)-4-(isopropylamino)pyridin-3-yl)-1,3,4-thiadiazol-2-yl)cyclobutyl)acetamide]",10000 nM
9,"CC(=O)N[C@@H]1[C@@H]2CC[C@H]1CN(c1nnc(-c3cnc(-c4ccc5cc(C#N)cnn45)cc3NC3(C)COC3)s1)C2 [Example 144, N-((1R,5S,8s)-3-(5-(6-(3-cyanopyrrolo[1,2-b]pyridazin-7-yl)-4-((3-methyloxetan-3-yl)amino)pyridin-3-yl)-1,3,4-thiadiazo1-2-yl)-3-azabicyclo[3.2.1]octan-8-yl)acetamide]",2.3 nM
10,"CC(=O)N[C@@H]1[C@@H]2CC[C@H]1CN(c1nnc(-c3cnc(-c4ccc5cc(C#N)cnn45)cc3NC3(C)CCOCC3)s1)C2 [Compound 272, N-((1R,5S,8s)-3-(5-(6-(3-cyanopyrrolo[1,2-b]pyridazin-7-yl)-4-((4-methyltetrahydro-2H-pyran-4-yl)amino)pyridin-3-yl)-1,3,4-thiadiazol-2-yl)-3-azabicyclo[3.2.1]octan-8-yl)acetamide]",4.1 nM
11,"CC(=O)N[C@H]1[C@@H]2CN(c3nnc(-c4cnc(-c5ccc6cc(C#N)cnn56)cc4NC(C)C)s3)C[C@@H]21 [Compound 240, N-((1R,5S,6s)-3-(5-(6-(3-cyanopyrrolo[1,2-b]pyridazin-7-yl)-4-(isopropylamino)pyridin-3-yl)-1,3,4-thiadiazol-2-yl)-3-azabicyclo[3.1.0]hexan-6-yl)acetamide]",8.9 nM
12,CC(C)Nc1cc(-c2ccc3cc(C#N)cnn23)ncc1-c1nnc(N2CCC[C@H]2CO)s1 [Compound 329],54.2 nM
13,CC(C)Nc1cc(-c2ccc3cc(C#N)cnn23)ncc1-c1nnc(N2C[C@H]3CC[C@@H](C2)[C@@H]3Nc2ncccc2F)s1 [Example 309],687 nM
14,"CC(=O)N[C@@H]1[C@@H]2CN(c3nnc(-c4cnc(-c5ccc6cc(C#N)cnn56)cc4NC(C)C)s3)C[C@@H]21 [Compound 239, N-((1R,5S,6r)-3-(5-(6-(3-cyanopyrrolo[1,2-b]pyridazin-7-yl)-4-(isopropylamino)pyridin-3-yl)-1,3,4-thiadiazol-2-yl)-3-azabicyclo[3.1.0]hexan-6-yl)acetamide]",4.9 nM

# Continued, values first:
row,EC50,Compound
1,2.4 nM,"COC(=O)N[C@H]1CC[C@H](Nc2cc(-c3ccc4cc(C#N)cnn34)ncc2-c2nnc(N3C[C@H]4CC[C@@H](C3)[C@@H]4NC(C)=O)s2)CC1 [Example 54, methyl ((1R,4r)-4-((5-(5-((1R,5S,8S)-8-acetamido-3-azabicyclo[3.2.1]octan-3-yl)-1,3,4-thiadiazol-2-yl)-2-(3-cyanopyrrolo[1,2-b]pyridazin-7-yl)pyridin-4-yl)amino)cyclohexyl)carbamate]"
2,2.1 nM,"CC(C)Nc1cc(-c2ccc3cc(C#N)cnn23)ncc1-c1nnc(N2C[C@H]3CC[C@@H](C2)[C@@H]3NC(=O)C2CCN(C)CC2)s1 [Example 100, N-((1R,5S,8s)-3-(5-(6-(3-cyanopyrrolo[1,2-b]pyridazin-7-yl)-4-(isopropylamino)pyridin-3-yl)-1,3,4-thiadiazol-2-yl)-3-azabicyclo[3.2.1]octan-8-yl)-1-methylpiperidine-4-carboxamide]"
3,9 nM,"CC(=O)N[C@@H]1[C@@H]2C[C@H]1CN(c1nnc(-c3cnc(-c4ccc5cc(C#N)cnn45)cc3NC3(C)COC3)s1)C2 [Example 175, N-((1R,5S,6s)-3-(5-(6-(3-cyanopyrrolo[1,2-b]pyridazin-7-yl)-4-((3-methyloxetan-3-yl)amino)pyridin-3-yl)-1,3,4-thiadiazol-2-yl)-3-azabicyclo[3.1.1]heptan-6-yl)acetamide]"
4,98.9 nM,CC(=O)NC12CCC(c3nnc(-c4cnc(-c5ccc6cc(C#N)cnn56)cc4NC4COC4)s3)(C1)C2 [Compound 334]
5,39.1 nM,"CC(=O)N[C@H]1[C@@H]2CCC[C@H]1CN(c1nnc(-c3cnc(-c4ccc5cc(C#N)cnn45)cc3NC(C)C)s1)C2 [Example 165, N-((1R,5S,9r)-3-(5-(6-(3-cyanopyrrolo[1,2-b]pyridazin-7-yl)-4-(isopropylamino)pyridin-3-yl)-1,3,4-thiadiazol-2-yl)-3-azabicyclo[3.3.1]nonan-9-yl)acetamide]"
6,13.8 nM,CC(=O)N[C@@H]1CCN(c2nnc(-c3cnc(-c4ccc5cc(C#N)cnn45)cc3NC(C)C)s2)C[C@@H]1O [Example 63]
7,1000 nM,CC(C)Nc1cc(-c2ccc3cc(C#N)cnn23)ncc1-c1nnc(C2CCC(C#N)CC2)s1 (stereo not shown) [Compound 333]
8,11.6 nM,"CC(=O)N[C@@H]1[C@@H]2C[C@H]1CN(c1nnc(-c3cnc(-c4ccc5cc(C#N)cnn45)cc3NC(C)C)s1)C2 [Example 173, N-((1R,5S,6s)-3-(5-(6-(3-cyanopyrrolo[1,2-b]pyridazin-7-yl)-4-(isopropylamino)pyridin-3-yl)-1,3,4-thiadiazol-2-yl)-3-azabicyclo[3.1.1]heptan-6-yl)acetamide]"
9,3.5 nM,C[C@H](C#N)Nc1cc(-c2ccc3cc(C#N)cnn23)ncc1-c1nnc(N2CC3CC(C2)N3C(=O)C(C)(C)O)s1 [Example 115]
10,6.9 nM,"COC(=O)NC[C@H]1C[C@H](Nc2cc(-c3ccc4cc(C#N)cnn34)ncc2-c2nnc([C@H]3CC[C@H](NC(=O)C4CC4)CC3)s2)C1 [Example 134, methyl (((1R,3r)-3-((2-(3-cyanopyrrolo[1,2-b]pyridazin-7-yl)-5-(5-((1r,4R)-4-(cyclopropanecarboxamido)cyclohexyl)-1,3,4-thiadiazol-2-yl)pyridin-4-yl)amino)cyclobutyl)methyl)carbamate]"
11,5.9 nM,"CC(C)Nc1cc(-c2ccc3cc(C#N)cnn23)ncc1-c1nnc(N2C[C@H]3CC[C@@H](C2)[C@@H]3NC(=O)[C@H]2C[C@@](C)(O)C2)s1 [Example 93, (1s,3S)-N-((1R,5S,8s)-3-(5-(6-(3-cyanopyrrolo[1,2-b]pyridazin-7-yl)-4-(isopropylamino)pyridin-3-yl)-1,3,4-thiadiazol-2-yl)-3-azabicyclo[3.2.1]octan-8-yl)-3-hydroxy-3-methylcyclobutane-1-carboxamide]"
